Results on 73 compounds are retold here after PubChem BioAssay AID179 (DTP/NCI, 2004).

Each structure is given as a SMILES string. Activity calls are given as the source filed them.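 Rule for the calls: active = compounds giving half or more protection of infected cells from virus-caused growth loss, again on retest; inactive = the rest.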 A value given as a limit tells only on which side of the number the result lay.

For this assay, the system named is CEM cells HIV-1 protection, formazan growth assay. The assay can be described thus: NCI AIDS Antiviral Assay. The conditions noted are these: for IC50: measured here: growth of uninfected CEM cells. In short, it runs like this: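 Five concentrations of each compound were applied to infected and uninfected human CEM cells. Protection from HIV-1 was judged from growth measured with a soluble formazan assay.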

A word on the EC50: it is the concentration needed to bring the measured effect to its halfway point. A word on the IC50: it is the midpoint of a concentration-inhibition curve. Take `CCOP12(OCC)NC(=O)OC1(C(F)(F)F)c1ccccc1O2` (stereo unspecified): the EC50 is greater than 141 µM and the IC50 is greater than 141 µM. Take `Nc1ccc(Nc2cc(=O)[nH]c(=O)[nH]2)cc1Cl`: the EC50 is greater than 200 µM and the IC50 was greater than 200 µM.

With `Oc1ccccc1-c1nnc2n1N=C(c1ccc(-c3ccccc3)cc1)CS2`, the EC50 was greater than 200 µM and the IC50 is 15.5 µM. For the compound `COc1cc(Nc2nc3ccccc3nc2-c2cccs2)cc(OC)c1OC`, the EC50 was greater than 25.1 µM and the IC50 is 21.9 µM. As for `S=C(NCCCCCCNC(=S)Nc1c2ccccc2nc2ccccc12)Nc1c2ccccc2nc2ccccc12`, the outcome was inactive. On to `CC(=O)C1C(=O)OC2C3C=CC(C3)C2C1=O` (stereo unspecified), for which the EC50 was greater than 309 µM and the IC50 is greater than 309 µM. `O=C1c2c(O)cc(O)cc2O[C@H](c2ccc(O)cc2)[C@H]1[C@@H]1C(=O)c2c(O)cc(O)cc2O[C@H]1c1ccc(O)cc1`: the EC50 is greater than 200 µM and the IC50 is 8.51 µM. Taken in the same sequence, the figures for `Fc1ccc2nncc(SCc3ccccc3)c2c1` were greater than 132 µM and 19.5 µM. Turning to `Cc1ccc(S(=O)(=O)c2c(N)c3nccn3c3nc4ccccc4nc23)cc1`, the EC50 is greater than 25.7 µM and the concentration for half-maximal inhibition (IC50) was greater than 25.7 µM.

Consider `O=[P+](O)c1ccsc1`, for which the result was inactive.

Regarding `CCOC(=O)C(NC(=O)C(CCCCNP(=O)(OCC)OCC)NC(=O)C(C)NC(C)=O)C(C)C` (stereo unspecified), the EC50 is greater than 200 µM and the IC50 was greater than 200 µM.

As for `O=C(c1ccccc1)c1cccc(C(=O)c2ccccc2)n1`, the EC50 was greater than 66.1 µM and the IC50 is greater than 66.1 µM. In the case of `Cn1c(=O)c2[nH]cnc2n(CC(=O)O)c1=O`, the EC50 was greater than 1120 µM and the IC50 was greater than 1120 µM. In the case of `COC(=O)/C=C/c1c[nH]c2nccnc12`, the EC50 is greater than 166 µM and the IC50 is 53.7 µM. In the case of `O=C1N[C@@H]2CCCC[C@@H]2C12CCCCC2`, the result was inactive. Take `COc1ccc2c(c1)c1cc(OC)ccc1n2CCCCOc1ccc(-c2c3ccccc3c(-c3ccc(OCCCCn4c5ccc(OC)cc5c5cc(OC)ccc54)cc3)c3ccccc23)cc1`: the EC50 is greater than 1.55 µM and the IC50 is greater than 1.55 µM. Take `C(=C\c1ccc2ccccc2n1)/c1cccnc1`: the EC50 is greater than 214 µM and the IC50 stood at 12 µM. Taken in the same sequence, the figures for `COc1nc(NC2OC(COC(C)=O)C(OC(C)=O)C(OC(C)=O)C2OC(C)=O)c(-c2csc(N)n2)c(=O)n1C` (stereo unspecified) were greater than 6.17 µM and greater than 6.17 µM. Regarding `COC1=Nc2ccccc2S(=O)(=O)C=C1`, the EC50 is greater than 398 µM and the IC50 came to 0.813 µM. As for `CC[C@H](O)[C@H](C)C=C1SCCCS1`, the EC50 is greater than 200 µM and the IC50 was greater than 200 µM. With `CC1CCC(NC(=O)N(CCCl)N=O)CC1` (stereo unspecified), the EC50 was greater than 145 µM and the half-maximal inhibitory concentration (IC50) is greater than 145 µM. Take `O=C(Cn1c2ccc(Br)cc2c2nc3ccccc3nc21)N/N=C/c1ccccc1`: the EC50 was greater than 100 µM and the IC50 is greater than 100 µM.

On to `COc1cc2c(cc1OC)C(C#N)N(C(=O)c1ccccc1)C=C2OC(=O)c1ccccc1` (stereo unspecified), for which the outcome was inactive. For `ClCCCC1COc2ccccc2O1` (stereo unspecified), the EC50 is greater than 200 µM and the IC50 was greater than 200 µM. Regarding `CNc1ccc(/C=C2\C=Cc3ccccc32)cc1`, the EC50 was greater than 200 µM and the IC50 is greater than 200 µM. For `OCCN1CCN(CCCN2c3ccccc3Sc3ccc(Cl)cc32)CC1`, the EC50 was greater than 200 µM and the IC50 came out at 10 µM. For `Oc1cc(F)cc2cccnc12`, the outcome was inactive. For the compound `Nc1nc2c(ncn2CC2COC(CO)O2)c(=O)[nH]1` (stereo unspecified), the EC50 was greater than 468 µM and the IC50 was greater than 468 µM. As for `N=C(N)N=Nc1cc(O)c(NN=C(N)N)cc1O`, the EC50 was greater than 200 µM and the IC50 was determined as 110 µM. Taken in the same sequence, the figures for `CCCCN(CCCC)C(=O)/C(CC(=O)c1cccc2ccccc12)=N\NC(=O)c1cc2ccccc2cc1O` were greater than 34.7 µM and 16.2 µM. Consider `O=C(O)CCNCCCCNCCC(=O)O`, for which the EC50 was greater than 813 µM and the IC50 was greater than 813 µM. As to `N#Cc1c(C#N)c(-c2ccccc2)n(Cc2ccccc2)c1N`, the EC50 was greater than 200 µM and the IC50 is greater than 200 µM. As for `COC(=O)[C@@H]1CCCCC[C@H]2C(CO)=C(C)C(=O)C12` (stereo partly specified), the EC50 was greater than 200 µM and the IC50 is greater than 200 µM. Regarding `CN1C=C(C(N)=O)Cc2ccsc21`, the EC50 was greater than 1290 µM and the half-maximal inhibitory concentration (IC50) stood at 66.1 µM. `CN(C)c1ccc(C=C2C(=O)NC(=O)NC2=O)cc1`: the EC50 was greater than 28.2 µM and the IC50 is greater than 28.2 µM. Regarding `O=C(O)CCS(=O)(=O)O`, the EC50 was greater than 200 µM and the IC50 was greater than 200 µM. With `O=CC[C@H]1C=Cc2ccccc2[C@@]12C=CC(=O)CC2`, the EC50 was greater than 28.8 µM and the IC50 is 21.9 µM. For `N=C([Se])c1ncn(C2OC(CO)C(O)C2O)c1N` (stereo unspecified), the EC50 is greater than 389 µM and the half-inhibitory concentration (IC50) turned out to be 30.2 µM. Taken in the same sequence, the figures for `CC(CCc1nc2ccccc2[nH]1)C1CCC2C3CC[C@@H]4C[C@H](O)CC[C@]4(C)C3C[C@H](O)[C@]12C` (stereo partly specified) were greater than 50.1 µM and 4.07 µM.

Regarding `COc1cccc(NC(=O)CC(=O)N2N=C(N(CCC#N)c3ccccc3C)CC2c2ccccc2)c1` (stereo unspecified), the EC50 is greater than 501 µM and the IC50 is greater than 501 µM. For the compound `CC(C)C1CNC(=O)C2(CCCO2)CNC(C(C)C)CNC(=O)C2(CCCO2)CN1` (stereo unspecified), the EC50 is greater than 295 µM and the IC50 was greater than 295 µM. Consider `NC(=O)c1c([N+](=O)[O-])cc(C(F)(F)F)cc1[N+](=O)[O-]`, for which the outcome was inactive. Turning to `COC(=O)Nc1cn2nc(C)sc2n1`, the EC50 was greater than 200 µM and the IC50 is greater than 200 µM. On to `Cc1noc(C)c1N=Nc1ccc2nonc2c1N`, for which the EC50 is greater than 200 µM and the IC50 was greater than 200 µM.

As to `O=C(Nn1c(-c2ccccc2)nc2ccccc2c1=O)c1cccc([N+](=O)[O-])c1`, the EC50 is greater than 200 µM and the IC50 was determined as 166 µM.

For `Cc1ccc(S(=O)(=O)N=NC=C2c3ccccc3N(O)c3ccccc32)cc1`, the outcome was inactive.

Regarding `Cc1cc(OCC(O)CO)ccc1Cl` (stereo unspecified), the EC50 was greater than 1150 µM and the IC50 came to 550 µM. For `CO[C@H]1/C=C/O[C@@]2(C)Oc3c(C)c(O)c4c(O)c(c(/C=N/N5C(C)CN(Cc6ccccc6)CC5C)c(O)c4c3C2=O)NC(=O)/C(C)=C\C=C\[C@H](C)[C@H](O)[C@@H](C)[C@@H](O)[C@@H](C)[C@H](OC(C)=O)[C@@H]1C` (stereo partly specified), in that order: greater than 200 µM and 9.77 µM. On to `CC1CC(NN(C)C)=C(C#N)C1(C#N)C#N` (stereo unspecified), for which the EC50 was greater than 200 µM and the half-maximal inhibitory concentration (IC50) is 11.7 µM.

For `COC(=O)C1CCc2c1c(=O)n1c([nH]c3ccccc31)c2C#N` (stereo unspecified), the EC50 was greater than 40.7 µM and the IC50 was greater than 40.7 µM. Regarding `Cc1cn2c(C)csc2c1P(=O)(OC(C)C)OC(C)C`, the EC50 was greater than 200 µM and the IC50 worked out at 158 µM. Turning to `O=C1Nc2ccc([N+](=O)[O-])c3c(C(=O)O)ccc1c23`, the EC50 is greater than 200 µM and the IC50 turned out to be 141 µM. Taken in the same sequence, the figures for `COc1cc(-c2cc(=O)c3cc4c(=O)cc(-c5cc(OC)c(OC)c(OC)c5)oc4cc3o2)cc(OC)c1OC` were greater than 100 µM and greater than 100 µM. As to `Cc1ccc2c(c1)[nH]c(=S)n2/C=C(/c1ccc(Cl)cc1)S(=O)(=O)Cc1ccc(Cl)cc1`, the EC50 is greater than 200 µM and the IC50 was greater than 200 µM. On to `C=CCOc1cc(NC(=S)c2sccc2C)ccc1Cl`, for which the EC50 is 1.45 µM and the IC50 worked out at 14.5 µM. For `COc1ccc(C2OC(N)=C(C#N)C3=C2C(C)CCC3)cc1OC` (stereo unspecified), the EC50 is 501 µM and the IC50 stood at 631 µM. As for `CC(=O)/C=C(\c1ccccc1)c1c(O)c2ccccc2oc1=O`, the EC50 is greater than 200 µM and the 50% inhibitory concentration (IC50) amounted to 141 µM.

As for `COC(=O)N(C[C@@H]1C=CCCC1)c1ccccc1I`, the EC50 was greater than 14.1 µM and the IC50 is greater than 14.1 µM. With `Cc1cc(O)c(C=O)c2c1C(=O)Oc1c(C)c(O)c(C(=O)O)c(C)c1O2`, the EC50 was greater than 200 µM and the IC50 turned out to be 186 µM. Regarding `O=C(C[C@@H]1CCCN2CCCC[C@H]12)N1c2ccccc2Sc2ccc(Cl)cc21`, the EC50 was greater than 200 µM and the IC50 amounted to 20.9 µM. Taken in the same sequence, the figures for `COC1/C=C/OC2(C)Oc3c(C)c(O)c4c(O)c(c(/C=N/N5CC(C)N(Cc6ccccc6)C(C)C5)c(O)c4c3C2=O)NC(=O)C(C)=C/C=C/C(C)C(O)C(C)C(O)C(C)C(OC(C)=O)C1C` (stereo unspecified) were greater than 200 µM and 3.09 µM. Regarding `CC1(C)OCC(C2OC3OC(C)(C)OC3C2=O)O1` (stereo unspecified), the result was inactive. Same read-out and setting: for `C=C(Cn1cnc2c(N)ncnc21)C(=O)OCC` the value was “inactive”. In the case of `CC(NC1=NCCO1)c1cccc([N+](=O)[O-])c1` (stereo unspecified), the EC50 is greater than 200 µM and the IC50 was greater than 200 µM.

Turning to `CCOC1C(CC/C=C\c2ccccc2)CCCCN1C(=O)OC(C)(C)C` (stereo unspecified), the EC50 was greater than 251 µM and the IC50 is greater than 251 µM. For the compound `COc1c(OC2OC(CO)C(O)C(O)C2O)cc2c(c1OC)-c1ccc(OC)c(=O)cc1[C@@H](NC(C)=O)CC2` (stereo partly specified), the outcome was inactive. With `CC(=O)c1c(-c2ccc(Cl)cc2)c(C#N)c(=S)n(C2OC(CO)C(O)C(O)C2O)c1C` (stereo unspecified), the EC50 is greater than 200 µM and the IC50 was found to be 44.7 µM. Taken in the same sequence, the figures for `Cc1ccc(S(=O)(=O)Nn2c(O)c(C#N)c(-c3ccc(Cl)cc3)c(C#N)c2=O)cc1` were greater than 200 µM and greater than 200 µM. On to `O=C(CCn1[nH]c(=O)c(Cl)c(Cl)c1=O)NO`, for which the EC50 is greater than 933 µM and the IC50 worked out at 832 µM. As to `O=C(O)c1ccc(S(=O)(=O)O)o1`, the EC50 is greater than 200 µM and the IC50 was greater than 200 µM. Turning to `Cn1c(=O)c2c(nc3sc4nc5ccccc5nc4n32)n(C)c1=O`, the EC50 is greater than 200 µM and the half-inhibitory concentration (IC50) was greater than 200 µM. As for `CCc1cc2c(oc3cc(C)ccc32)c(=O)[nH]1`, the EC50 was greater than 100 µM and the IC50 is greater than 100 µM. Take `CN(C)C=C1C=CC=C1`: the EC50 was 166 µM and the IC50 was greater than 200 µM.
